The experiment has as its target T1, LIMK1 (Homo sapiens, UniProt P53667).
T1 construct: purchased Thermo Fisher Scientific (Life Technologies) SelectScreen
Description: SelectScreen LanthaScreen. The experiment is classed as binding. To be noted: read-out: % displacement. In short, it runs like this:
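SelectScreen broad panel; activity (Z'LYTE, Adapta) plus binding formats. ATP: Km app for CSF1R Z'LYTE; 10 for CAMK1 Adapta. Readout = % per kinase.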

T1 sequence (P53667 whole entry): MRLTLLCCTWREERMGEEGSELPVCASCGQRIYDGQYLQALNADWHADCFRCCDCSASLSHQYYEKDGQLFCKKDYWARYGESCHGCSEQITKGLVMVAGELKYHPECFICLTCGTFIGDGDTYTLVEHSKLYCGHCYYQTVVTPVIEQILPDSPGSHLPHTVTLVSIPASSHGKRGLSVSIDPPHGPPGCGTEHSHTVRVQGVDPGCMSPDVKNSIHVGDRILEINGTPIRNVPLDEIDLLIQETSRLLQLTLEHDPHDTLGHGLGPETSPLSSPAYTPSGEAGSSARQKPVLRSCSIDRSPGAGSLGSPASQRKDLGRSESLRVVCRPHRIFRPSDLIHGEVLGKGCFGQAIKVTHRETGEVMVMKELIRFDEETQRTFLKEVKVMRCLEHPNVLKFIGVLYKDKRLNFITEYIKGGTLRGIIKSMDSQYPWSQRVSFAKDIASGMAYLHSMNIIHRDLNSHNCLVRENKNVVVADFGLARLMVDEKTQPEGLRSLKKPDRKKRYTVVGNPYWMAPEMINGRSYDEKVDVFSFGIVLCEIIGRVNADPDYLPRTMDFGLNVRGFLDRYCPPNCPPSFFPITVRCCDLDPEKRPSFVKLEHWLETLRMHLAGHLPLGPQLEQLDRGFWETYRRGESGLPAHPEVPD

On to `CN(C(=O)CN1CCOCC1)c1ccc2sc3c(-c4cccc5c(=O)cc(N6CC7CCC(C6)O7)oc45)cccc3c2c1` [NU5455], for which the inhibition at 1 µM was -1.7%.
